Read-outs that look alike come from different tables or passages of the source.
Key:
[1] = Ascending multiple dose pharmacokinetics of enteric coated capsules in healthy subjects; type: in vivo, human; conditions: human, plasma, po, healthy subjects
Protocol: Ascending multiple doses of 25, 50, 75, 100, 150, and 250 mg Compound A.HCl were administered as twice-daily regimen (q12h) for 14 days in cohorts of 8 healthy subjects (6 active and 2 placebo). Blood samples for Compound A.HCl analysis were obtained on days 1 and 14 within 2 hours of test article administration and at various time points from 0.5 to 48 hours after test article administration. Doses were administered orally after an overnight fast of at least 10 hours on these 2 days. Trough PK samples were collected on days 7, 10, and 12 to assess whether steady-state had been reached.
A total of 48 subjects contributed pharmacokinetic data for this analysis. […] FIGS. 4A and 4B show the relationship between Cmax vs. dose and AUC vs. dose, respectively.

[2] = Single ascending dose study; type: in vivo; conditions: single oral doses of 500 mg

Cl.c1cc2c3c(c1)[C@H]1CCC[C@H]1CN3CCNC2 [Compound A.HCl, (9aR,12aS)-4,5,6,7,9,9a,10,11,12,12a-decahydrocyclopenta[c][1,4]diazepino[6,7,1-ij]quinoline hydrochloride]
half-life ([1]; 75 mg, single oral dose 75 mg, day 1, read-out: t1/2 (Geom. Mean) (converted)): 7.93 h
half-life ([1]; 75 mg, single oral dose 75 mg, day 1, read-out: t1/2 (Mean) (converted)): 8.22 h
AUC(0-t) ([1]; 100 mg, multiple oral doses (q12 h) 100 mg, day 14, read-out: AUCss (AUC0-12) (Geom. Mean)): 49.2 ng·h/mL
AUC(0-t) ([1]; 100 mg, multiple oral doses (q12 h) 100 mg, day 14, read-out: AUCss (AUC0-12) (Mean)): ~62.8 ng·h/mL
Cmax ([1]; 100 mg, multiple oral doses (q12 h) 100 mg, day 14, read-out: Cmax (Geom. Mean)): 6.45 ng/mL
Cmax ([1]; 100 mg, multiple oral doses (q12 h) 100 mg, day 14, read-out: Cmax (Mean)): 7.81 ng/mL
Tmax ([1]; 100 mg, multiple oral doses (q12 h) 100 mg, day 14, read-out: Tmax (Geom. Mean)): 5.3 h
Tmax ([1]; 100 mg, multiple oral doses (q12 h) 100 mg, day 14, read-out: Tmax (Mean)): 5.5 h
half-life ([1]; 100 mg, multiple oral doses (q12 h) 100 mg, day 14, read-out: t1/2 (Geom. Mean) (converted)): 7.72 h
half-life ([1]; 100 mg, multiple oral doses (q12 h) 100 mg, day 14, read-out: t1/2 (Mean) (converted)): 7.86 h
AUC(0-inf) ([1]; 100 mg, single oral dose 100 mg, day 1, read-out: AUC0-∞ (Geom. Mean)): 47.2 ng·h/mL
AUC(0-inf) ([1]; 100 mg, single oral dose 100 mg, day 1, read-out: AUC0-∞ (Mean)): 55.5 ng·h/mL
Cmax ([1]; 100 mg, single oral dose 100 mg, day 1, read-out: Cmax (Geom. Mean)): 3.64 ng/mL
Cmax ([1]; 100 mg, single oral dose 100 mg, day 1, read-out: Cmax (Mean)): 4.38 ng/mL
Tmax ([1]; 100 mg, single oral dose 100 mg, day 1, read-out: Tmax (Geom. Mean)): 5.3 h
Tmax ([1]; 100 mg, single oral dose 100 mg, day 1, read-out: Tmax (Mean)): 5.5 h
half-life ([1]; 100 mg, single oral dose 100 mg, day 1, read-out: t1/2 (Geom. Mean) (converted)): 9.31 h
half-life ([1]; 100 mg, single oral dose 100 mg, day 1, read-out: t1/2 (Mean) (converted)): 9.9 h
AUC(0-t) ([1]; 150 mg, multiple oral doses (q12 h) 150 mg, day 14, read-out: AUCss (AUC0-12) (Geom. Mean)): 90.7 ng·h/mL
AUC(0-t) ([1]; 150 mg, multiple oral doses (q12 h) 150 mg, day 14, read-out: AUCss (AUC0-12) (Mean)): ~110 ng·h/mL
Cmax ([1]; 150 mg, multiple oral doses (q12 h) 150 mg, day 14, read-out: Cmax (Geom. Mean)): 10.7 ng/mL
Cmax ([1]; 150 mg, multiple oral doses (q12 h) 150 mg, day 14, read-out: Cmax (Mean)): 13.1 ng/mL
Tmax ([1]; 150 mg, multiple oral doses (q12 h) 150 mg, day 14, read-out: Tmax (Geom. Mean)): 5 h
Tmax ([1]; 150 mg, multiple oral doses (q12 h) 150 mg, day 14, read-out: Tmax (Mean)): 5.2 h
half-life ([1]; 150 mg, multiple oral doses (q12 h) 150 mg, day 14, read-out: t1/2 (Geom. Mean) (converted)): 7 h
half-life ([1]; 150 mg, multiple oral doses (q12 h) 150 mg, day 14, read-out: t1/2 (Mean) (converted)): 7.04 h
AUC(0-inf) ([1]; 150 mg, single oral dose 150 mg, day 1, read-out: AUC0-∞ (Geom. Mean)): 55.3 ng·h/mL
AUC(0-inf) ([1]; 150 mg, single oral dose 150 mg, day 1, read-out: AUC0-∞ (Mean)): 70.2 ng·h/mL
Cmax ([1]; 150 mg, single oral dose 150 mg, day 1, read-out: Cmax (Geom. Mean)): 3.67 ng/mL
Cmax ([1]; 150 mg, single oral dose 150 mg, day 1, read-out: Cmax (Mean)): 5.05 ng/mL
Tmax ([1]; 150 mg, single oral dose 150 mg, day 1, read-out: Tmax (Geom. Mean)): 5.6 h
Tmax ([1]; 150 mg, single oral dose 150 mg, day 1, read-out: Tmax (Mean)): 5.7 h
half-life ([1]; 150 mg, single oral dose 150 mg, day 1, read-out: t1/2 (Geom. Mean) (converted)): 9 h
half-life ([1]; 150 mg, single oral dose 150 mg, day 1, read-out: t1/2 (Mean) (converted)): 9.08 h
AUC(0-t) ([1]; 250 mg, multiple oral doses (q12 h) 250 mg, day 14, read-out: AUCss (AUC0-12) (Geom. Mean)): 218 ng·h/mL
AUC(0-t) ([1]; 250 mg, multiple oral doses (q12 h) 250 mg, day 14, read-out: AUCss (AUC0-12) (Mean)): ~235 ng·h/mL
Cmax ([1]; 250 mg, multiple oral doses (q12 h) 250 mg, day 14, read-out: Cmax (Geom. Mean)): 25.6 ng/mL
Cmax ([1]; 250 mg, multiple oral doses (q12 h) 250 mg, day 14, read-out: Cmax (Mean)): 26.8 ng/mL
Tmax ([1]; 250 mg, multiple oral doses (q12 h) 250 mg, day 14, read-out: Tmax (Geom. Mean)): 5.9 h
Tmax ([1]; 250 mg, multiple oral doses (q12 h) 250 mg, day 14, read-out: Tmax (Mean)): 6.2 h
half-life ([1]; 250 mg, multiple oral doses (q12 h) 250 mg, day 14, read-out: t1/2 (Geom. Mean) (converted)): 6.99 h
half-life ([1]; 250 mg, multiple oral doses (q12 h) 250 mg, day 14, read-out: t1/2 (Mean) (converted)): 7.12 h
AUC(0-inf) ([1]; 250 mg, single oral dose 250 mg, day 1, read-out: AUC0-∞ (Geom. Mean)): 84.7 ng·h/mL
AUC(0-inf) ([1]; 250 mg, single oral dose 250 mg, day 1, read-out: AUC0-∞ (Mean)): 95.5 ng·h/mL
Cmax ([1]; 250 mg, single oral dose 250 mg, day 1, read-out: Cmax (Geom. Mean)): 5.91 ng/mL
Cmax ([1]; 250 mg, single oral dose 250 mg, day 1, read-out: Cmax (Mean)): 6.27 ng/mL
Tmax ([1]; 250 mg, single oral dose 250 mg, day 1, read-out: Tmax (Geom. Mean)): 5.9 h
Tmax ([1]; 250 mg, single oral dose 250 mg, day 1, read-out: Tmax (Mean)): 6 h
half-life ([1]; 250 mg, single oral dose 250 mg, day 1, read-out: t1/2 (Geom. Mean) (converted)): 9.91 h
half-life ([1]; 250 mg, single oral dose 250 mg, day 1, read-out: t1/2 (Mean) (converted)): 10.4 h
dose proportionality of exposure [2]: signs of nonlinearity

— patent US20060110451A1, “Formulations of [1,4]diazepino[6,7,1-IJ]quinoline derivatives” (priority 2004, published 2006)
